In ChEMBL document CHEMBL1201862, “PubChem BioAssay data set” (2004) one finds EC50 and IC50 data, which are given here for two compounds.

Calls of active or inactive are those of the source.

The target of assay [1] is Multidrug resistance protein CDR2 (Candida albicans (strain SC5314 / ATCC MYA-2876) (Yeast), UniProt P78595). In words: inhibition of Nile Red efflux via Candida CDR2 – S. cerevisiae AD1-8u, singleplex, Cherry Pick1 hits, dose response (AID 588604). In kind it is functional.
The subject of assay [2] is HEK293. The assay can be described thus: cells. The note with it: Homo sapiens.
In assay [3] the target is Luciferin 4-monooxygenase (Photinus pyralis, UniProt P08659). The assay can be described thus: inhibition of purified Photinus pyralis luciferase – biochemical, luminescence, dose response (AID 1891).
Assay [4] addresses T1, High affinity choline transporter 1 (Homo sapiens, UniProt Q9GZV3).
T1 sequence (Q9GZV3 whole entry): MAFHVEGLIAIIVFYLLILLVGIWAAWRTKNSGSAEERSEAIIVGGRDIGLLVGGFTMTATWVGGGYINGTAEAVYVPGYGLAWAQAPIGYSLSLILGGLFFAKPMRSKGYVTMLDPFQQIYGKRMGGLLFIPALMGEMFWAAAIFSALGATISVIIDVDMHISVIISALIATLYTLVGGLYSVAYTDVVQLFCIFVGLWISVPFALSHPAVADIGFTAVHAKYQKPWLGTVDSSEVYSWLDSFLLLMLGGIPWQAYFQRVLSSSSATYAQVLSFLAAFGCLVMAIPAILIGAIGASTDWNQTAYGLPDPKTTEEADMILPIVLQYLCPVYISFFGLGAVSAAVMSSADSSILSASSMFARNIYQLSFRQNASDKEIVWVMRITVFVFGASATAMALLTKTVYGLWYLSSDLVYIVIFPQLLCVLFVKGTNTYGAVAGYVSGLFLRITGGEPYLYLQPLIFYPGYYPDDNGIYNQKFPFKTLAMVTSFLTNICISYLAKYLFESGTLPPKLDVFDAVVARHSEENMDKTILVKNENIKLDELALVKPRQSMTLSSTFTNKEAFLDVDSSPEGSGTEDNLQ
In words: human choline transporter blockers, potency – cell-based, 10-point CRC, membrane potential dye, dose response (AID 588401).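 Note: membrane potential dye fluorescence of choline-evoked depolarization via CHT.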 Type of assay: functional.

Assay [5] addresses T1, High affinity choline transporter 1. The assay can be described thus: human choline transporter blockers, potency – cell-based, 5-point CRC, membrane potential dye, dose response (AID 504840). In kind it is functional.
In assay [6] the test system is HEK293. In words: cells. The note with it: Homo sapiens. This is another data set of the same source.
Assay [7] can be described thus: Luminescence Cell-Based Dose Confirmation HTS to Identify Inhibitors of Platelet Dense Granule Release. [Related pubchem assays: 1663 (Primary HTS), 1678 (Summary of Project)]. In kind it is functional.

Luciferin 4-monooxygenase, sequence (P08659 whole entry): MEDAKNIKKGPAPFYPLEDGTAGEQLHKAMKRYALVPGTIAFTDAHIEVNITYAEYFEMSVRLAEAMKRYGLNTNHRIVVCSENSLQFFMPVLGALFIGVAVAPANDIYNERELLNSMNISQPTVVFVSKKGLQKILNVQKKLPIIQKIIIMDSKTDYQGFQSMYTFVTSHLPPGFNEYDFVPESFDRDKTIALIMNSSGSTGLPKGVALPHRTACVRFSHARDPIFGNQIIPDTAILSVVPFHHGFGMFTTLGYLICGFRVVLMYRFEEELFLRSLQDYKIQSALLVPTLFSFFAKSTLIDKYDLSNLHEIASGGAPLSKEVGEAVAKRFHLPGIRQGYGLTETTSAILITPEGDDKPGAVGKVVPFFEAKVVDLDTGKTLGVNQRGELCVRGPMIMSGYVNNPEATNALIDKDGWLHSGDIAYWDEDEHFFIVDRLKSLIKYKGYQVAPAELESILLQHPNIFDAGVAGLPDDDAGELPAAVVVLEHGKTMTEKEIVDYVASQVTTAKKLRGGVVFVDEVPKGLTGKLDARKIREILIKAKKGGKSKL
Multidrug resistance protein CDR2, sequence (P78595 whole entry): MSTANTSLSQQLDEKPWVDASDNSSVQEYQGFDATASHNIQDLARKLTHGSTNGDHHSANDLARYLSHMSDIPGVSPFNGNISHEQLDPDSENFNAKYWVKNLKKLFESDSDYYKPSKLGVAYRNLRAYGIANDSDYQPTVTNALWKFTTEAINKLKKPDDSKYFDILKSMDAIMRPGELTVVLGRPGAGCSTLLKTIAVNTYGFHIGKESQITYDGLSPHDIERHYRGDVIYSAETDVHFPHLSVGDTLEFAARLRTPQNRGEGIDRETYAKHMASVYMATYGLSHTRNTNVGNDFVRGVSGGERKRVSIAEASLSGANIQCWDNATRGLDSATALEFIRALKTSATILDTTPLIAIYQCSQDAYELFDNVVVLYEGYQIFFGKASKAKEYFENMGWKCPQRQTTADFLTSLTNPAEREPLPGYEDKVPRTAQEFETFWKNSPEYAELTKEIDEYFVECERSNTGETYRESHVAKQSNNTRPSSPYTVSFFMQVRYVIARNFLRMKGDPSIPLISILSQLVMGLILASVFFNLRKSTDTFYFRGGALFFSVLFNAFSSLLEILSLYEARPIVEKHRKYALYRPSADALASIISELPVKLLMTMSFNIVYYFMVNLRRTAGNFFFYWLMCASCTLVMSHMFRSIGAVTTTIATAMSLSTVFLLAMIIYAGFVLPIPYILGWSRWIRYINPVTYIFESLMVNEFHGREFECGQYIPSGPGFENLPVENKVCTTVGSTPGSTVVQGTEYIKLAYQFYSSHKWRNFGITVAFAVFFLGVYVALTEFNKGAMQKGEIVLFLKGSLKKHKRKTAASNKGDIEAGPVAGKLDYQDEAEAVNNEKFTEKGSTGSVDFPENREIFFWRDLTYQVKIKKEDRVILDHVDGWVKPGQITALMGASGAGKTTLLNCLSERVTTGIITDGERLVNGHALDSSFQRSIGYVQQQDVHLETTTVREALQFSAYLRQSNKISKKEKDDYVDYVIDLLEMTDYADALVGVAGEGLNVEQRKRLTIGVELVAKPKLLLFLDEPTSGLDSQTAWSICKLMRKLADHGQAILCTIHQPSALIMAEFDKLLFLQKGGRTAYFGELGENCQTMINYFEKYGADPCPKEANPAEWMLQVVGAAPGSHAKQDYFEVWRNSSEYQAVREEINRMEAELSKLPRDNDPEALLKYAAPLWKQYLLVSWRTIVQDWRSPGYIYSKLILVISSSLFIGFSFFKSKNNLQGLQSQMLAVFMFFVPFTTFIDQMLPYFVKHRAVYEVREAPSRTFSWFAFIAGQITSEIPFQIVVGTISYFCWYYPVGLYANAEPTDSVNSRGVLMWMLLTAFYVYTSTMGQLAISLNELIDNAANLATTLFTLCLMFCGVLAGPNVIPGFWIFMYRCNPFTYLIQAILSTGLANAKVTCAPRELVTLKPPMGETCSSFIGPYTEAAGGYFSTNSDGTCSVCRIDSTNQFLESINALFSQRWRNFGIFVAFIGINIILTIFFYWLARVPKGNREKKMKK

On to `O=C(Cn1c(COc2ccccc2)nc2ccccc21)Nc1cc(Cl)c(Cl)cc1Cl`, for which the 50% effective concentration (EC50) – broadly, the midpoint of the concentration-response curve – in assay [1] was 15.7 µM (active).

As to `C=C[C@@]1(C)CC(=O)[C@]2(O)[C@@]3(C)[C@@H](O)CCC(C)(C)[C@@H]3[C@H](OC(C)=O)[C@H](O)[C@@]2(C)O1`, the EC50 in the assay on HEK293 [2] was > 59.7 µM (inactive); in assay [3], > 112 µM (not active); with HEK293 [6] it was > 59.7 µM (inactive); in assay [7], 4.26 µM (active). Further, the IC50 – broadly, the concentration at which inhibition is half-maximal – in assay [4] is 0.815 µM (active); in assay [5], 1.52 µM (active).
